# Laboratory results as given in patent US20040005648A1, “PYK2 related products and methods” (Sugen, Inc., priority 1994, published 2004).
# Test system: PYK-2
# Assay: Tyrosine phosphorylation of PYK-2 in NIH3T3 cell lines that overexpress PYK-2
# Type: cell-based, mouse
# Details: NIH3T3 cells overexpressing PYK-2 / PYK-2-HA; TPA 6 μM, 15 min at 37° C.
# Procedure: Stable cell lines of NIH3T3 that overexpress PYK2 were established by contransfection of PYK2 subcloned into pLSV together with pSV2neo utilizing lipofectamine reagent (GIBCO BRL). Following transfection the cells were grown in Dulbecco's modified Eagle's medium containing 10% fetal bovine serum and 1 mg/ml G418. Transient transfections into 293 cells were performed by using the calcium phosphate technique (*).
# The PYK-2 cDNA cloned in PLSV was cotransfected with pSV2neo into PC12 cells and NIH3T3 in order to establish stable cell lines. G418 resistant colonies were screened by immunoprecipitating and immunoblotting.
# NIH3T3 cell lines were established that overexpress the PYK-2 and the PYK-2-HA protein. […] The level of phosphorylation is not so high.
compound,measurement,value
"CCCCCCCCCCCCCC(=O)O[C@@H]1[C@@H](C)[C@@]2(O)[C@@H](C=C(CO)C[C@]3(O)C(=O)C(C)=C[C@@H]23)[C@@H]2C(C)(C)[C@]12OC(C)=O [PMA, phorbol 12-myristate 13-acetate]",tyrosine phosphorylation of PYK-2 in response to the agent,stronger effect
